Reference: US11376264B2, “Use of bromodomain-containing protein 9 antagonists in combination with vitamin D receptor agonists in diabetes treatment” (Salk Institute for Biological Studies, priority 2017, dated 2022)

How the values were obtained:
db/db (BKS) mice = experiment: db/db (BKS) mouse T2D model treatment; type: in vivo
Protocol: The following mice strains were from Jackson: VDR KO (B6.129S4-Vdrtm1Mbd/J), B6 db (B6.BKS(D)-Leprdb/J), BKS db (BKS.Cg-Dock7m+/+ Leprdb/J), C57BL6/J. Animals were maintained in a specific pathogen-free animal facility on a 12-hr light-dark cycle at an ambient temperature of 23° C. Water and food were provided ad lib. All animal experiments used age-matched male mice. VDR KO and control littermate mice were maintained on a VDR KO rescue diet containing 21% calcium, 0.67% phosphorus, and 20% lactose supplemented with 4.4 U vitamin D per gram diet.
db/db (B6) mice were grouped based on glucose levels at the age of 5 weeks. Treatments were started from 6 weeks and animals were treated with vehicle (30% 2-Hydroxypropyl-β Cyclodextrin, Sigma, H-107) or drugs 3 times a week. […] For db/db (BKS) mice, treatment started from age of 10 weeks.
For immunohistochemistry, FFPE tissues sections were deparaffinized and antigen retrieval performed using Vector Antigen Unmasking buffer (H3301). VectaStain ABC kit and ImmPACT DAB substrate (Vector Lab) were used to develop signal. Antibodies used: Pro-insulin (R&D, MAB13361, 1:100), insulin (Abcam, ab7842, 1:100), MAFA (Novus, NB400-137, 1:50), NKX6-1 (Cell Signaling, 54551, 1:100), and Glucagon (Abcam, ab82270, 1:100). DAPI-containing mounting media ([…] mounting medium for fluorescence) was used for nuclear staining. Immunostaining was visualized by ZEISS 780 confocal microscopy analysis.
ELISA were performed per manufacturer's instructions: mouse insulin (Millipore, EZRMI-13K), mouse proinsulin (Mercodia, NC9088881).

INS1 cells = experiment: Thapsigargin or tunicamycin-induced ER stress in INS1 cells (p-PERK Western); type: cell-based, rat; conditions: Cal pre-treated 1 hour, stressor overnight
[1] = In vivo pharmacokinetic study of iBRD9 (plasma, LC-MS); conditions: FIG. 12J, n=3
Protocol: An internal standard of d4-succinate was added to all samples prior to analysis. […] of methanol containing 100 pmol of d4-succinate was added to 50 uL plasma samples and vortexed for 1 min. The samples were then centrifuged at 17.000× g for 10 min at 4° C. After drying the supernatant via SpeedVac, the extract was dissolved in H2O ([…]) and […] was subjected to liquid chromatography mass spectrometry (LC-MS). Compound i-BRD9 was measured using a TSQ Quantiva mass spectrometer (Thermo) and Dionex Ultimate 3000 (Thermo) fitted with a Gemini C18 HPLC column ([…]; 4.6 mm×50 mm, Phenomenex). LC solvents used were: solvent A, 0.1% formic acid in water; solvent B, 0.1% formic acid in acetonitrile. Separations took place over 16 min with a flow rate of 0.4 mL/min and consisted of the following steps: 5 to 50% solvent B over 9 min, 50 to 80% B over 1 min, 80% B for 1 min, 80 to 5% B over 0.1 min, and 5% B for 5 min. MS analyses were performed using electrospray ionization (ESI) in positive ion mode for i-BRD9 and negative ion mode for d4-succinate. Positive and negative mode source parameters were as follows: spray voltage 3.5 kV, ion transfer tube temperature of 325° C., and a vaporizer temperature of 275° C. Multiple reaction monitoring transitions for target compound and internal standard are shown in (Table 2).

VDR-BRD9 interaction = target: T1, VDR-BRD9 interaction (Homo sapiens, UniProt P11473+Q9H8M2); experiment: Co-immunoprecipitation of VDR and BRD9 in 293T cells; type: cell-based; conditions: proteomic and Western blot
T1 construct: endogenous BRD9 co-immunoprecipitates with HA-tagged VDR; expressed in transfected cells; host or cells: 293T
T1 sequence (P11473 1-427): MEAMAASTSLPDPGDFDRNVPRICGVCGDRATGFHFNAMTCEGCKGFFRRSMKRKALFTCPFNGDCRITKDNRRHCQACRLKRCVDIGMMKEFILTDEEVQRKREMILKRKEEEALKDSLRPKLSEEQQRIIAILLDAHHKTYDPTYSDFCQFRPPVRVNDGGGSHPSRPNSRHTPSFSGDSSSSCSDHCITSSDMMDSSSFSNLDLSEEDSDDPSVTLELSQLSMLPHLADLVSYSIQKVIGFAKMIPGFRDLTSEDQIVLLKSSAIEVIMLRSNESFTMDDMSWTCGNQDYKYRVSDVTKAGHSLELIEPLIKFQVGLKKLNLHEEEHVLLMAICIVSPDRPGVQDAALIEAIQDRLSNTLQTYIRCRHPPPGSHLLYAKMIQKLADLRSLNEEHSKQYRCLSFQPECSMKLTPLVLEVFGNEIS
T1 sequence (Q9H8M2 1-597): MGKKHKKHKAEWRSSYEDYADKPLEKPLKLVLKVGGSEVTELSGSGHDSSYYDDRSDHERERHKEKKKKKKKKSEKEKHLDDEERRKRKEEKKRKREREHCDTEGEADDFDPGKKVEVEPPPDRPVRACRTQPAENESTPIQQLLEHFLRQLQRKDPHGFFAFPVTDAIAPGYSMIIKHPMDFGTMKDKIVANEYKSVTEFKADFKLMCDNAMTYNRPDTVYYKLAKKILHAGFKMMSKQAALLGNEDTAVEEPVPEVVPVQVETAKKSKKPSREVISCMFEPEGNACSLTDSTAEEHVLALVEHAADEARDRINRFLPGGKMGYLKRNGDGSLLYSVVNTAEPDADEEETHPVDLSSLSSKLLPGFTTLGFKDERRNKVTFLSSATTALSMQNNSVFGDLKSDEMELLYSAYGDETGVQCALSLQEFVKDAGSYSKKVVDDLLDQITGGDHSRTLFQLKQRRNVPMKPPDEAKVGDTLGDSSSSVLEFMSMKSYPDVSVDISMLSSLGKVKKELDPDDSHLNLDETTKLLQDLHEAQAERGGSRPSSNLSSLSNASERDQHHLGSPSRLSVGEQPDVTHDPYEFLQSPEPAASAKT
Protocol: Briefly, cells are lysed using ice-cold lysis buffer (HEPES 20 mM pH8, EDTA 0.2 mM, NaCl 0.3 mM, NP40 0.5%, 15% glycerol) for 15 min, and after centrifuging the supernatant was collected. For HA- or Flag-tagged proteins, immunoprecipitations were performed using HA-magnetic beads (Pierce, P188836), or Flag-magnetic beads (Sigma, M8823) for 1.5 hr at 4° C. For other immunoprecipitations, primary antibodies were incubated with lysates for 2 hr followed by Protein A magnetic beads (Life Technologies, 10001D). After 3 washes with wash buffer (HEPES 10 mM pH8, EDTA 0.2 mM, NaCl 0.3 mM, NP40 0.1%, 15% glycerol), the beads were boiled with NuPage LDS sample buffer and the lysates were stored at −20° C.

[2] = test system: BAF/PBAF complex binding at Nfkbia, Nfkbiz, Camk4; experiment: ChIP-qPCR of ARID1B and BAF180 at VDR target loci; type: cell-based, rat
Description: The experimental procedure for ChIP was as previously described (Barish et al., 2010, Genes Dev 24:2760-5). Briefly, after fixation, nuclei from were isolated, lysed, and sheared with a Diagenode Bioruptor to yield DNA fragment sizes of 200-1,000 bp followed by immunoprecipitation.

| SMILES | serum insulin levels (db/db (BKS) mice; fasting) | fasting blood glucose / glucose management (db/db (BKS) mice; i.p. 3 times a week) | ER stress markers Calnexin and PERK (db/db (BKS) mice; immunohistochemistry of pancreatic sections) | intracellular insulin level (immunofluorescence) (db/db (BKS) mice; pancreas sections) | ER stress (p-PERK) (INS1 cells) | maximum plasma iBRD9 concentration [1] [nM] | interaction between VDR and BRD9 (VDR-BRD9 interaction) | ARID1B (BAF complex) binding at target gene loci [2] | BAF180 (PBAF complex) binding at target gene loci [2] |
| --- | --- | --- | --- | --- | --- | --- | --- | --- | --- |
| C=C1/C(=C\C=C2/CCC[C@]3(C)[C@@H]([C@H](C)/C=C/[C@@H](O)C4CC4)CC[C@@H]23)C[C@@H](O)C[C@@H]1O [Cal, calcipotriol] | higher fasting serum insulin levels | only limited improvements | reduced | rescued | attenuated |  |  |  |  |
| CCn1cc(-c2cccc(C(F)(F)F)c2)c2sc(C(=N)NC3CCS(=O)(=O)CC3)cc2c1=O [iBRD9] |  |  |  |  |  | ~750 | reduced the interaction between VDR and BRD9 | reduces BAF complex binding | increases PBAF complex binding |
